Data taken from patent US11767322B2 (BRISTOL-MYERS SQUIBB COMPANY, priority 2020, dated 2023).
Like-named read-outs stand apart in the source and are kept apart here.

Legend:
[1] = tested on: MLKL phosphorylation in HT29-L23 human colorectal adenocarcinoma cells; assay: MLKL phosphorylation high-content assay; format: cell-based
[2] = biological target: T1, His-GST-TVMV-hRIPK1(1-324) (Homo sapiens, UniProt Q13546); assay: biochemical; format: binding
T1 construct: The coding region of human RIPK1(1-324) flanked by NdeI site at 5′ end; made in house; host or cells: Spodoptera frugiperda Sf9 insect cells (baculovirus, Bac-to-Bac)
T1 sequence (Q13546 1-324): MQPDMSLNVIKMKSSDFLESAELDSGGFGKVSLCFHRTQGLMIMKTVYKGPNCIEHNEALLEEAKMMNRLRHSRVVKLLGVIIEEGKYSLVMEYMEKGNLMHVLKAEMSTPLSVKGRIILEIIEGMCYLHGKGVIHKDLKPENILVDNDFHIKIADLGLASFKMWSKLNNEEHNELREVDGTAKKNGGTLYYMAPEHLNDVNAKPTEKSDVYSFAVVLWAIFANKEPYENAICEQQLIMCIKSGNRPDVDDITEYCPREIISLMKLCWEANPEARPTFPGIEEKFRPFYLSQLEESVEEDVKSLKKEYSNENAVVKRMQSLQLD

[3] = read-out: pMLKL IC50, HT29-L23 cells, necroptosis induced with TNFα, SMAC mimetic and Z-VAD, 6 h, maximal inhibition defined by Nec1s
[4] = HTRF probe displacement, 1 h at rt, read-out: RIPK1 IC50
[5] = Homo sapiens, 6 h, read-out: pMLKL IC50, HT29-L23 cells, necroptosis induced with TNFα, SMAC mimetic and Z-VAD, 6 h, maximal inhibition defined by Nec1s
[6] = read-out: pMLKL IC50, Table 22, compounds of the present invention
[7] = Table 22, compounds of the present invention, read-out: RPIK1 IC50

[2H]C([2H])([2H])OC(c1ccc(F)cc1)C(F)(F)CNC(=O)c1c(C)ccc(-c2ccn3nc(N)nc3c2)c1F (single isomer, unassigned) [Example 236, 3-(2-amino-[1,2,4]triazolo[1,5-a]pyridin-7-yl)-N-(2,2-difluoro-3-(4-fluorophenyl)-3-(methoxy-d3)propyl)-2-fluoro-6-methylbenzamide]
IC50 [1, 3]: 0.9 nM | IC50 [2, 4]: 3.4 nM

[2H]C([2H])([2H])c1ccc(-c2ccn3nc(N)nc3c2)c(F)c1C(=O)NCC(F)(F)C(C)(O)c1ccc(F)cc1 (single isomer, unassigned) [Example 241, 3-(2-amino-[1,2,4]triazolo[1,5-a]pyridin-7-yl)-N-(2,2-difluoro-3-(4-fluorophenyl)-3-hydroxybutyl)-2-fluoro-6-(methyl-d3)benzamide]
IC50 [1, 5]: 1.2 nM | IC50 [2, 4]: 10 nM

[2H]C([2H])([2H])c1ccc(-c2ccn3nc(N)nc3c2)c(F)c1C(=O)NCC(F)(F)C(C)(O)c1ccc(F)cc1 (single isomer, unassigned) [Example 242, 3-(2-amino-[1,2,4]triazolo[1,5-a]pyridin-7-yl)-N-(2,2-difluoro-3-(4-fluorophenyl)-3-hydroxybutyl)-2-fluoro-6-(methyl-d3)benzamide]
IC50 [1, 3]: 1 nM | IC50 [2, 4]: 9.1 nM

[2H]C([2H])([2H])c1ccc(-c2ccn3nc(N)nc3c2)c(F)c1C(=O)NCC(F)(F)C(O)(c1ccc(F)cc1)C([2H])([2H])[2H] (single isomer, unassigned) [Example 243, 3-(2-amino-[1,2,4]triazolo[1,5-a]pyridin-7-yl)-N-(2,2-difluoro-3-(4-fluorophenyl)-3-hydroxybutyl-4,4,4-d3)-2-fluoro-6-(methyl-d3)benzamide]
IC50 [1, 5]: 1.2 nM | IC50 [2, 4]: 4.7 nM

[2H]C([2H])([2H])c1ccc(-c2ccn3nc(N)nc3c2)c(F)c1C(=O)NCC(F)(F)C(O)(c1ccc(F)cc1)C([2H])([2H])[2H] (single isomer, unassigned) [Example 244, 3-(2-amino-[1,2,4]triazolo[1,5-a]pyridin-7-yl)-N-(2,2-difluoro-3-(4-fluorophenyl)-3-hydroxybutyl-4,4,4-d3)-2-fluoro-6-(methyl-d3)benzamide]
IC50 [1, 3]: 1.2 nM | IC50 [2, 4]: 2.7 nM

[2H]C([2H])([2H])c1ccc(-c2ccn3nc(N)nc3c2)c(F)c1C(=O)NCC(F)(F)C(C)(O)c1ccc(Cl)cc1 (single isomer, unassigned) [Example 252, 3-(2-amino-[1,2,4]triazolo[1,5-a]pyridin-7-yl)-N-(3-(4-chlorophenyl)-2,2-difluoro-3-hydroxybutyl)-2-fluoro-6-(methyl-d3)benzamide]
IC50 [1, 3]: 2.7 nM | IC50 [2, 4]: 7.2 nM

[2H]C([2H])([2H])c1ccc(-c2ccn3nc(N)nc3c2)c(F)c1C(=O)NCC(F)(F)C(C)(O)c1ccc(Cl)cc1 (single isomer, unassigned) [Example 253, 3-(2-amino-[1,2,4]triazolo[1,5-a]pyridin-7-yl)-N-(3-(4-chlorophenyl)-2,2-difluoro-3-hydroxybutyl)-2-fluoro-6-(methyl-d3)benzamide]
IC50 [1, 3]: 1.2 nM | IC50 [2, 4]: 2.4 nM

Nc1nc2cc(-c3ccc(Cl)c(C(=O)NCC(F)(F)C(O)c4cccc(C(F)(F)F)n4)c3F)ccn2n1 (single isomer, unassigned) [Example 254, 3-(2-amino-[1,2,4]triazolo[1,5-a]pyridin-7-yl)-6-chloro-N-(2,2-difluoro-3-hydroxy-3-(6-(trifluoromethyl)pyridin-2-yl)propyl)-2-fluorobenzamide]
IC50 [1, 3]: 4.1 nM | IC50 [2, 4]: 3.5 nM

Nc1nc2cc(-c3ccc(Cl)c(C(=O)NCC(F)(F)C(O)c4cccc(C(F)(F)F)n4)c3F)ccn2n1 (single isomer, unassigned) [Example 255, 3-(2-amino-[1,2,4]triazolo[1,5-a]pyridin-7-yl)-6-chloro-N-(2,2-difluoro-3-hydroxy-3-(6-(trifluoromethyl)pyridin-2-yl)propyl)-2-fluorobenzamide]
IC50 [1, 3]: 79 nM | IC50 [2, 4]: 17 nM

Cc1ccc(-c2ccn3nc(N)nc3c2)c(F)c1C(=O)NCC(F)(F)C(O)c1ccnc(C(F)(F)F)c1 (single isomer, unassigned) [Example 260, 3-(2-amino-[1,2,4]triazolo[1,5-a]pyridin-7-yl)-N-(2,2-difluoro-3-hydroxy-3-(2-(trifluoromethyl)pyridin-4-yl)propyl)-2-fluoro-6-methylbenzamide]
IC50 [1, 3]: 3.2 nM | IC50 [2, 4]: 8.4 nM

Cc1ccc(-c2ccn3nc(N)nc3c2)c(F)c1C(=O)NCC(F)(F)C(O)c1ccnc(C(F)(F)F)c1 (single isomer, unassigned) [Example 261, 3-(2-amino-[1,2,4]triazolo[1,5-a]pyridin-7-yl)-N-(2,2-difluoro-3-hydroxy-3-(2-(trifluoromethyl)pyridin-4-yl)propyl)-2-fluoro-6-methylbenzamide]
IC50 [1, 3]: 79 nM | IC50 [2, 4]: 40 nM

Nc1nc2cc(-c3ccc(Cl)c(C(=O)NCC(F)(F)C(O)c4cccc(Cl)n4)c3F)ccn2n1 (single isomer, unassigned) [Example 262, 3-(2-amino-[1,2,4]triazolo[1,5-a]pyridin-7-yl)-6-chloro-N-(3-(6-chloropyridin-2-yl)-2,2-difluoro-3-hydroxypropyl)-2-fluorobenzamide]
IC50 [1, 5]: 45 nM | IC50 [2, 4]: 14 nM

Nc1nc2cc(-c3ccc(Cl)c(C(=O)NCC(F)(F)C(O)c4cccc(Cl)n4)c3F)ccn2n1 (single isomer, unassigned) [Example 263, 3-(2-amino-[1,2,4]triazolo[1,5-a]pyridin-7-yl)-6-chloro-N-(3-(6-chloropyridin-2-yl)-2,2-difluoro-3-hydroxypropyl)-2-fluorobenzamide]
IC50 [1, 3]: 48 nM | IC50 [2, 4]: 21 nM

Cc1ccc(-c2ccn3nc(N)nc3c2)c(F)c1C(=O)NCC(F)(F)C(O)c1c(F)cc(F)cc1F (single isomer, unassigned) [Example 283, 3-(2-amino-[1,2,4]triazolo[1,5-a]pyridin-7-yl)-N-(2,2-difluoro-3-hydroxy-3-(2,4,6-trifluorophenyl)propyl)-2-fluoro-6-methylbenzamide]
IC50 [1, 5]: 1 nM | IC50 [2, 4]: 0.5 nM

Cc1ccc(-c2ccn3nc(N)nc3c2)c(F)c1C(=O)NCC(F)(F)C(O)c1c(F)cc(F)cc1F (single isomer, unassigned) [Example 284, 3-(2-amino-[1,2,4]triazolo[1,5-a]pyridin-7-yl)-N-(2,2-difluoro-3-hydroxy-3-(2,4,6-trifluorophenyl)propyl)-2-fluoro-6-methylbenzamide]
IC50 [1, 3]: 1.1 nM | IC50 [2, 4]: 3.5 nM

Cc1ccc(-c2ccn3nc(N)nc3c2)c(F)c1C(=O)NCC(O)C(F)(F)c1ccc(F)cc1 (single isomer, unassigned) [Example 290, 3-(2-amino-[1,2,4]triazolo[1,5-a]pyridin-7-yl)-N-(3,3-difluoro-3-(4-fluorophenyl)-2-hydroxypropyl)-2-fluoro-6-methylbenzamide]
IC50 [1, 3]: 0.5 nM | IC50 [1, 6]: 0.5 nM | IC50 [2, 4]: 4.8 nM | IC50 [2, 7]: 4.8 nM

Cc1ccc(-c2ccn3nc(N)nc3c2)c(F)c1C(=O)NCC(O)C(F)(F)c1ccc(F)cc1 (single isomer, unassigned) [Example 291, 3-(2-amino-[1,2,4]triazolo[1,5-a]pyridin-7-yl)-N-(3,3-difluoro-3-(4-fluorophenyl)-2-hydroxypropyl)-2-fluoro-6-methylbenzamide]
IC50 [1, 3]: 2.4 nM | IC50 [1, 6]: 2.4 nM | IC50 [2, 4]: 1 nM | IC50 [2, 7]: 1 nM

Nc1nc2cc(-c3ccc(Cl)c(C(=O)NCC(O)C(F)(F)c4ccc(F)cc4)c3F)ccn2n1 (single isomer, unassigned) [Example 292, 3-(2-amino-[1,2,4]triazolo[1,5-a]pyridin-7-yl)-6-chloro-N-(3,3-difluoro-3-(4-fluorophenyl)-2-hydroxypropyl)-2-fluorobenzamide]
IC50 [1, 5]: 1 nM | IC50 [2, 4]: 2.4 nM

[2H]C([2H])([2H])c1ccc(-c2ccn3nc(N)nc3c2)c(F)c1C(=O)NCC1(C(O)c2ccc(F)cc2)CC1 (single isomer, unassigned) [Example 307, 3-(2-amino-[1,2,4]triazolo[1,5-a]pyridin-7-yl)-2-fluoro-N-((1-((4-fluorophenyl) (hydroxy)methyl)cyclopropyl)methyl)-6-(methyl-d3)benzamide]
IC50 [1, 5]: 14 nM | IC50 [2, 4]: 9.6 nM

[2H]C([2H])([2H])c1ccc(-c2ccn3nc(N)nc3c2)c(F)c1C(=O)NCC1(C(O)c2ccc(F)cc2)CC1 (single isomer, unassigned) [Example 308, 3-(2-amino-[1,2,4]triazolo[1,5-a]pyridin-7-yl)-2-fluoro-N-((1-((4-fluorophenyl) (hydroxy)methyl)cyclopropyl)methyl)-6-(methyl-d3)benzamide]
IC50 [1, 3]: 9 nM | IC50 [2, 4]: 12 nM

[2H]C([2H])([2H])c1ccc(-c2ccn3nc(N)nc3c2)c(F)c1C(=O)NCC1(C([2H])(O)c2ccc(F)cc2)CC1 (single isomer, unassigned) [Example 309, 3-(2-amino-[1,2,4]triazolo[1,5-a]pyridin-7-yl)-2-fluoro-N-((1-((4-fluorophenyl) (hydroxy)methyl-d)cyclopropyl)methyl)-6-(methyl-d3)benzamide]
IC50 [1, 5]: 11 nM | IC50 [2, 4]: 6.2 nM
